We go through 35 compounds from patent publication US8952021B2, “Compounds for the prevention and treatment of cardiovascular disease” (Resverlogix Corp., priority 2009, dated 2015).

Each structure is given as a SMILES string.

The experiment relates to ApoA-I mRNA. Briefly: Quantification of ApoA-I mRNA in HepG2 cells (real-time PCR). Conditions: fold induction relative to DMSO control, concentration less than or equal to 100 μM. Details: key: Active: An active compound was defined as one that caused a ≧20% increase in ApoA-I mRNA at a concentration less than or equal to 100 μM. Type of experiment: cell-based. As to the method:
In this example, ApoA-I mRNA in tissue culture cells was quantitated to measure the transcriptional up-regulation of ApoA-I when treated with a compound of the invention.
HepG2 cells (approximately 2×10^5 per well) were placed in a 24-well plate in approximately 400 μL MEM, supplemented with 0.5% (v/v) FBS, 24 h before addition of the compound of interest. At time of harvesting, the spent media was removed from the HepG2 cells and immediately placed on ice (for immediate use) or at −80° C. (for future use) in ApoA-I and albumin ELISAs. The cells remaining in the plate wells were rinsed in 200 μL PBS. PBS was carefully removed to avoid removing any loosely attached cells.
Once the PBS was removed, 85 μL cell lysis solution was added the cells in each well and incubated for 5-10 minutes at room temperature, to allow for complete cell lysis and detachment. mRNA was then prepared using the “mRNA Catcher PLUS plate” from Invitrogen, according to the protocol supplied. After the last wash, as much wash buffer as possible was aspirated without allowing the wells to dry. Elution Buffer (E3, 80 μL) was then added to each well. mRNA was then eluted by incubating the mRNA Catcher PLUS plate with Elution Buffer for 5 minutes at 68° C. and then immediately placing the plate on ice.
The eluted mRNA isolated was then used in a one-step real-time […] reaction, using components of the Ultra Sense Kit together with Applied Biosystems primer-probe mixes. Real-time PCR data was analyzed, using the Ct values, to determine the fold induction of each unknown sample, relative to the control (that is, relative to the control for each independent DMSO concentration).
An active compound was defined as one that caused a ≧20% increase in ApoA-I mRNA at a concentration less than or equal to 100 μM.
(In general: In qPCR the cycle at which signal appears reflects the starting amount.)
As for `CCC(C)c1ccc(-n2c(-c3cncnc3)nc3ccccc3c2=O)cc1` (centres unmarked) [Example 45, 3-(4-sec-butylphenyl)-2-(pyrimidin-5-yl)quinazolin-4(3H)-one], the “Effect on ApoA-I mRNA levels” value was “Active”.

Regarding `CCC(C)c1ccc(-n2c(-c3ccc(C)nc3)nc3ccccc3c2=O)cc1` (centres unmarked) [Example 46, 3-(4-sec-butylphenyl)-2-(6-methylpyridin-3-yl)quinazolin-4(3H)-one], the “Effect on ApoA-I mRNA levels” value is listed as “Active”.

For the compound `Cc1ccc(-c2nc3ccccc3c(=O)n2-c2ccc(Cl)cc2)cn1` [Example 47, 3-(4-chlorophenyl)-2-(6-methylpyridin-3-yl)quinazolin-4(3H)-one], the “Effect on ApoA-I mRNA levels” value is given as “Active”.

In the case of `O=c1c2ccccc2nc(-c2ccc(N3CCCCC3)nc2)n1-c1ccc(Cl)cc1` [Example 48, 3-(4-chlorophenyl)-2-(6-(piperidin-1-yl)pyridin-3-yl)quinazolin-4(3H)-one], the “Effect on ApoA-I mRNA levels” value is on record as “Active”.

In the case of `CCC(C)c1ccc(-n2c(-c3ccc(N4CCCCC4)nc3)nc3ccccc3c2=O)cc1` (centres unmarked) [Example 49, 3-(4-sec-butylphenyl)-2-(6-(piperidin-1-yl)pyridin-3-yl)quinazolin-4(3H)-one], the “Effect on ApoA-I mRNA levels” value is recorded as “Active”.

Turning to `O=c1c2ccccc2nc(-c2ccc(Oc3ccccc3)nc2)n1-c1ccc(Cl)cc1` [Example 50, 3-(4-chlorophenyl)-2-(6-phenoxypyridin-3-yl)quinazolin-4(3H)-one], the “Effect on ApoA-I mRNA levels” value was “Active”.

For the compound `CCC(C)c1ccc(-n2c(-c3ccc(F)nc3)nc3ccccc3c2=O)cc1` (centres unmarked) [Example 51, 3-(4-sec-butylphenyl)-2-(6-fluoropyridin-3-yl)quinazolin-4(3H)-one], the “Effect on ApoA-I mRNA levels” value is “Active”.

On to `CCC(C)c1ccc(-n2c(-c3ccc(Oc4ccccc4)nc3)nc3ccccc3c2=O)cc1` (centres unmarked) [Example 52, 3-(4-sec-butylphenyl)-2-(6-phenoxypyridin-3-yl)quinazolin-4(3H)-one], for which the “Effect on ApoA-I mRNA levels” value is on record as “Active”.

For `O=c1c2ccccc2nc(-c2ccc(C(F)(F)F)nc2)n1-c1ccc(Cl)cc1` [Example 53, 3-(4-chlorophenyl)-2-(6-(trifluoromethyl)pyridin-3-yl)quinazolin-4(3H)-one], the “Effect on ApoA-I mRNA levels” value is listed as “Active”.

As for `CCC(C)c1ccc(-n2c(-c3ccc(C(F)(F)F)nc3)nc3ccccc3c2=O)cc1` (centres unmarked) [Example 54, 3-(4-sec-butylphenyl)-2-(6-(trifluoromethyl)pyridin-3-yl)quinazolin-4(3H)-one], the “Effect on ApoA-I mRNA levels” value is “Active”.

As for `CCC(C)c1ccc(-n2c(-c3ccc(-c4ccccc4)nc3)nc3ccccc3c2=O)cc1` (centres unmarked) [Example 55, 3-(4-sec-butylphenyl)-2-(6-phenylpyridin-3-yl)quinazolin-4(3H)-one], the “Effect on ApoA-I mRNA levels” value is on record as “Active”.

Consider `CCC(C)c1ccc(-n2c(-c3cncc(-c4ccccc4)c3)nc3ccccc3c2=O)cc1` (centres unmarked) [Example 56, 3-(4-sec-butylphenyl)-2-(5-phenylpyridin-3-yl)quinazolin-4(3H)-one], for which the “Effect on ApoA-I mRNA levels” value is listed as “Active”.

Consider `CCC(C)c1ccc(-n2c(-c3cncc(Br)c3)nc3ccccc3c2=O)cc1` (centres unmarked) [Example 57, 2-(5-bromopyridin-3-yl)-3-(4-sec-butylphenyl)quinazolin-4(3H)-one], for which the “Effect on ApoA-I mRNA levels” value is “Active”.

For `O=c1c2ccccc2nc(-c2cncc(Br)c2)n1-c1ccc(Cl)cc1` [Example 58, 2-(5-bromopyridin-3-yl)-3-(4-chlorophenyl)quinazolin-4(3H)-one], the “Effect on ApoA-I mRNA levels” value is on record as “Active”.

`CCC(C)c1ccc(-n2c(-c3cncc(N(CC)CC)c3)nc3ccccc3c2=O)cc1` (centres unmarked) [Example 59, 3-(4-sec-butylphenyl)-2-(5-(diethylamino)pyridin-3-yl)quinazolin-4(3H)-one]: the “Effect on ApoA-I mRNA levels” value was “Active”.

Turning to `O=c1c2ccccc2nc(-c2cncc(-c3ccccc3)c2)n1-c1ccc(Cl)cc1` [Example 60, 3-(4-chlorophenyl)-2-(5-phenylpyridin-3-yl)quinazolin-4(3H)-one], the “Effect on ApoA-I mRNA levels” value was “Active”.

As for `CCN(CC)c1cncc(-c2nc3ccccc3c(=O)n2-c2ccc(Cl)cc2)c1` [Example 61, 3-(4-chlorophenyl)-2-(5-(diethylamino)pyridin-3-yl)quinazolin-4(3H)-one], the “Effect on ApoA-I mRNA levels” value is reported as “Active”.

`Cc1ccc(-c2nc3ccccc3c(=O)n2-c2ccc(C3CCCC3)cc2)cn1` [Example 62, 3-(4-cyclopentylphenyl)-2-(6-methylpyridin-3-yl)quinazolin-4(3H)-one]: the “Effect on ApoA-I mRNA levels” value is “Active”.

As to `CCC(C)c1ccc(-n2c(-c3ccc(CO)nc3)nc3ccccc3c2=O)cc1` (centres unmarked) [Example 63, 3-(4-sec-butylphenyl)-2-(6-(hydroxymethyl)pyridin-3-yl)quinazolin-4(3H)-one], the “Effect on ApoA-I mRNA levels” value is “Active”.

On to `CSc1ccc(-n2c(-c3ccc(C)nc3)nc3ccccc3c2=O)cc1` [Example 64, 2-(6-methylpyridin-3-yl)-3-(4-(methylthio)phenyl)quinazolin-4(3H)-one], for which the “Effect on ApoA-I mRNA levels” value is listed as “Active”.

Turning to `Cc1ccc(-c2nc3ccccc3c(=O)n2-c2ccc(C(C)C)cc2)cn1` [Example 65, 3-(4-isopropylphenyl)-2-(6-methylpyridin-3-yl)quinazolin-4(3H)-one], the “Effect on ApoA-I mRNA levels” value is “Active”.

On to `Cc1ccc(-c2nc3ccccc3c(=O)n2-c2ccc(NS(C)(=O)=O)cc2)cn1` [Example 66, N-(4-(2-(6-methylpyridin-3-yl)-4-oxoquinazolin-3(4H)-yl)phenyl)methanesulfonamide], for which the “Effect on ApoA-I mRNA levels” value is recorded as “Active”.

For `CCC(C)c1ccc(-n2c(-c3ccc(CN4CCOCC4)nc3)nc3ccccc3c2=O)cc1` (centres unmarked) [Example 67, 3-(4-sec-butylphenyl)-2-(6-(morpholinomethyl)pyridin-3-yl)quinazolin-4(3H)-one], the “Effect on ApoA-I mRNA levels” value was “Active”.

Turning to `Cc1ccc(-c2nc3ccccc3c(=O)n2-c2ccc(C3CC3)cc2)cn1` [Example 68, 3-(4-cyclopropylphenyl)-2-(6-methylpyridin-3-yl)quinazolin-4(3H)-one], the “Effect on ApoA-I mRNA levels” value was “Active”.

With `Cc1ccc(-c2nc3ccccc3c(=O)n2-c2ccc(N(C)C)cc2)cn1` [Example 69, 3-(4-(dimethylamino)phenyl)-2-(6-methylpyridin-3-yl)quinazolin-4(3H)-one], the “Effect on ApoA-I mRNA levels” value is given as “Active”.

Consider `O=c1c2ccccc2nc(-c2ccc(Cl)nc2)n1-c1ccc(C2CC2)cc1` [Example 70, 2-(6-chloropyridin-3-yl)-3-(4-cyclopropylphenyl)quinazolin-4(3H)-one], for which the “Effect on ApoA-I mRNA levels” value is on record as “Active”.

Regarding `CCC(C)c1ccc(-n2c(-c3ccc(N4CCOCC4)nc3)nc3ccccc3c2=O)cc1` (centres unmarked) [Example 71, 3-(4-sec-butylphenyl)-2-(6-morpholinopyridin-3-yl)quinazolin-4(3H)-one], the “Effect on ApoA-I mRNA levels” value was “Active”.

`CCC(C)c1ccc(-n2c(-c3ccc4[nH]ncc4c3)nc3ccccc3c2=O)cc1` (centres unmarked) [Example 72, 3-(4-sec-butylphenyl)-2-(1H-indazol-5-yl)quinazolin-4(3H)-one]: the “Effect on ApoA-I mRNA levels” value is on record as “Active”.

Regarding `O=c1c2ccccc2nc(-c2ccc3[nH]ccc3c2)n1-c1ccc(Cl)cc1` [Example 73, 3-(4-chlorophenyl)-2-(1H-indol-5-yl)quinazolin-4(3H)-one], the “Effect on ApoA-I mRNA levels” value was “Active”.

For the compound `CCC(C)c1ccc(-n2c(-c3ccc4[nH]ccc4c3)nc3ccccc3c2=O)cc1` (centres unmarked) [Example 74, 3-(4-sec-butylphenyl)-2-(1H-indol-5-yl)quinazolin-4(3H)-one], the “Effect on ApoA-I mRNA levels” value is “Active”.

As for `CCC(C)c1ccc(-n2c(-c3ccc4nc(CO)[nH]c4c3)nc3ccccc3c2=O)cc1` (centres unmarked) [Example 75, 3-(4-sec-butylphenyl)-2-(2-(hydroxymethyl)-1H-benzo[d]imidazol-6-yl)quinazolin-4(3H)-one], the “Effect on ApoA-I mRNA levels” value is “Active”.

In the case of `O=c1c2ccccc2nc(-c2ccc3[nH]ccc3c2)n1-c1ccc(OC(F)(F)F)cc1` [Example 76, 2-(1H-indol-5-yl)-3-(4-(trifluoronnethoxy)phenyl)quinazolin-4(3H)-one], the “Effect on ApoA-I mRNA levels” value is reported as “Active”.

In the case of `CC(C)c1ccc(-n2c(-c3ccc4[nH]ccc4c3)nc3ccccc3c2=O)cc1` [Example 77, 2-(1H-indol-5-yl)-3-(4-isopropylphenyl)quinazolin-4(3H)-one], the “Effect on ApoA-I mRNA levels” value is on record as “Active”.

For the compound `COc1ccc(S(=O)(=O)n2ccc3cc(-c4nc5ccccc5c(=O)n4-c4ccc(Cl)cc4)cnc32)cc1` [Example 78, 3-(4-chlorophenyl)-2-(1-(4-methoxyphenylsulfonyl)-1H-pyrrolo[2,3-b]pyridin-5-yl)quinazolin-4(3H)-one], the “Effect on ApoA-I mRNA levels” value is listed as “Active”.

As to `O=c1c2ccccc2nc(-c2cnc3c(ccn3S(=O)(=O)c3ccc(F)cc3)c2)n1-c1ccc(Cl)cc1` [Example 79, 3-(4-chlorophenyl)-2-(1-(4-fluorophenylsulfonyl)-1H-pyrrolo[2,3-b]pyridin-5-yl)quinazolin-4(3H)-one], the “Effect on ApoA-I mRNA levels” value is “Active”.
